Measurements: ChEMBL document CHEMBL5727750, “Heterocyclic compounds as immunomodulators” (2020)
“And” between values parts separate entries of the source, which are not always exact repeats. Equal values may be shown once.

Test: Nuclear Factor of Activated T-Cells (NFAT) Assay: PD-L1 aAPC/CHO-Klcells (Promega) were maintained in F-12 medium with addition of 10% FBS, 200 μg/ml Hygromycin B, 250 μg/ml Geneticin (G418). Jurkat-PD-1-NFAT effector cells (Promega) were cultured in RPMI 1640 medium supplemented with 10% FBS, 100 μg/ml Hygromycin B, 500 μg/ml G418. The culture media of PD-L1 aAPC/CHO-K1 cells were first replaced with assay medium (RPMI1640 medium with 1% FBS). The PD-L1 aAPC/CHO-K1 cells were then added in a white 384-well white clear bottom assay plate (CELLCOAT® Tissue Culture Plates, Greiner Bio-One) at 8000 per well in 10 μL assay medium. Test compounds were prepared by serial dilution in DMSO and 0.8 μL test compounds in DMSO were first transferred to the 384 REMP plate well (Thermofisher) by PlateMate Plus (Thermofisher) followed with addition of 50 μL plating medium. 5 μL compounds in the assay medium were transferred to the cells with 0.4% DMSO in the final assay at 2 μM. After removing the culture media, 10,000 Jurkat-PD-1-NFAT effector cells in 5 μL assay medium was dispensed into each well. The assay plate was incubated at 37° C., 5% CO2 for 24 hours. After the assay plate was equilibrated to room temp for 15 minutes, 20 µL/well of Bio-Glo™ reagent (Promega) were added. After 8 minutes incubation at room temperature, luminescence was read at with Pherastar microplate reader (BMG Labtech). The fold of induction (FOI) was calculated based on the ratio of luminescence normalized to the DMSO wells within each assay plate. The maximum percentage of induction was reported based on the ratio between the highest FOI of each compound and the maximum FOI of control compound within each assay plate. Wells with DMSO were served as the negative controls and wells containing control compound with the highest FOI were used as positive controls. EC50 determination was performed by fitting the curve of percent control activity versus the log of the compound concentration using the GraphPad Prism 6.0 software.

Question: Which EC50 does the source give for `Cc1c(Nc2nc(N)nc3cc(CN4CC[C@@H](O)C4)cnc23)cccc1-c1cccc(-c2nc3cc(CN4CCC(C(=O)O)CC4)cc(C#N)c3o2)c1C` here?
Answer: Its EC50 is 10 to 100 nM.

Question: For `Cc1c(Nc2nc(C(F)F)nc3cc(CN4CC[C@@H](O)C4)cnc23)cccc1-c1cccc(-c2nc3cc(CN4CCC(C)(C(=O)O)CC4)cc(C#N)c3o2)c1C`, which EC50 is on record?
Answer: Its EC50 is 10 to 100 nM.

Question: With `Cc1nc(Nc2cccc(-c3cccc(-c4nc5cc(CN6CCC(C(=O)O)CC6)cc(C#N)c5o4)c3C)c2C)c2ncc(CNC[C@H](C)O)cc2n1` as the molecule, how does the EC50 read?
Answer: The EC50 was “in the range around 55 nM”.

Question: With `Cc1c(Nc2nc(CO)nc3cc(CN4CC[C@@H](O)C4)cnc23)cccc1-c1cccc(-c2nc3cc(CN4CCC(C(=O)O)CC4)cc(C#N)c3o2)c1C` as the molecule, how does the EC50 read?
Answer: Its EC50 is 10 to 100 nM.

Question: Which EC50 does the source give for `Cc1c(Nc2nc(C(F)F)nc3cc(CN4CC[C@](C)(O)C4)cnc23)cccc1-c1cccc(-c2nc3cc(CN4CCC(C(=O)O)CC4)cc(C#N)c3o2)c1C` here?
Answer: The EC50 was < 10 nM.

Question: With `Cc1c(Nc2nc(C(F)F)nc3cc(CN4CC[C@@H](O)C4)cnc23)cccc1-c1cccc(-c2nc3cc(CN4CCC(C(=O)N(C)C)CC4)cc(C#N)c3o2)c1C` as the molecule, how does the EC50 read?
Answer: Its EC50 is 10 to 100 nM.

Question: Which EC50 does the source give for `Cc1nc(Nc2cccc(-c3cccc(-c4nc5cc(CN6CC[C@@H](C(=O)O)C6)cc(C#N)c5o4)c3C)c2C)c2ncc(CN3CC[C@](C)(O)C3)cc2n1` here?
Answer: Its EC50 is 10 to 100 nM.

Question: For `Cc1nc(Nc2cccc(-c3cccc(-c4nc5cc(CN6CC[C@@H](C(=O)O)C6)cc(C#N)c5o4)c3C)c2C)c2ncc(CNC[C@H](C)O)cc2n1`, which EC50 is on record?
Answer: The EC50 was 10 to 100 nM.

Question: For `Cc1c(Nc2nc(C(F)F)nc3cc(CN4CC[C@@H](O)C4)cnc23)cccc1-c1cccc(-c2nc3cc(CN4CC[C@@H](C(=O)O)C4)cc(C#N)c3o2)c1C`, which EC50 is on record?
Answer: The EC50 was 10 nM and 100 nM and in the range around 55 nM.

Question: With `Cc1c(Nc2nc(C(F)F)cc3cc(CN4CC[C@@H](O)C4)cnc23)cccc1-c1cccc(-c2nc3cc(CN4CC[C@@](C)(C(=O)O)C4)cc(C#N)c3o2)c1C` as the molecule, how does the EC50 read?
Answer: The EC50 was < 10 nM.

Question: Which EC50 does the source give for `Cc1nc(Nc2cccc(-c3cccc(-c4nc5cc(CN6CCC(C(=O)O)CC6)cc(C#N)c5o4)c3C)c2C)c2ncc(CN3CC[C@](C)(O)C3)cc2n1` here?
Answer: Its EC50 is 10 to 100 nM.

Question: Which EC50 does the source give for `Cc1c(Nc2nc(C(F)F)nc3cc(CN4CC[C@@H](O)C4)cnc23)cccc1-c1cccc(-c2nc3cc(CN4CC[C@@](C)(C(=O)O)C4)cc(C#N)c3o2)c1C` here?
Answer: Its EC50 is 10 nM and 100 nM and in the range around 55 nM.

Question: For `Cc1nc(Nc2cccc(-c3cccc(-c4nc5cc(CN6CC[C@@](C)(C(=O)O)C6)cc(C#N)c5o4)c3C)c2C)c2ncc(CN[C@@H](C)CO)cc2n1`, which EC50 is on record?
Answer: The EC50 was “in the range around 55 nM”.

Question: For `Cc1nc(Nc2cccc(-c3cccc(-c4nc5cc(CN6CC[C@@H](C(=O)O)C6)cc(C#N)c5o4)c3C)c2C)c2ncc(CN[C@@H](C)CO)cc2n1`, which EC50 is on record?
Answer: The EC50 was 10 to 100 nM.

Question: For `Cc1nc(Nc2cccc(-c3cccc(-c4nc5cc(CN6CCC(C(=O)O)CC6)cc(C#N)c5o4)c3C)c2C)c2ncc(CN3CC[C@@H](O)C3)cc2n1`, which EC50 is on record?
Answer: Its EC50 is 10 to 100 nM.

Question: Which EC50 does the source give for `Cc1c(Nc2nc(C(F)F)nc3cc(CN4CC[C@@H](O)C4)cnc23)cccc1-c1cccc(-c2nc3cc(CN4CC[C@H](C(=O)O)C4)cc(C#N)c3o2)c1C` here?
Answer: Its EC50 is 10 to 100 nM.

Question: With `Cc1nc(Nc2cccc(-c3cccc(-c4nc5cc(CN6CC[C@@](C)(C(=O)O)C6)cc(C#N)c5o4)c3C)c2C)c2ncc(CNC[C@H](C)O)cc2n1` as the molecule, how does the EC50 read?
Answer: The EC50 was “in the range around 55 nM”.

Question: Which EC50 does the source give for `CNC(=O)C1CCN(Cc2cc(C#N)c3oc(-c4cccc(-c5cccc(Nc6nc(C(F)F)nc7cc(CN8CC[C@@H](O)C8)cnc67)c5C)c4C)nc3c2)CC1` here?
Answer: The EC50 was < 10 nM.

Question: With `Cc1c(Nc2nc(C3CC3)nc3cc(CN4CC[C@@H](O)C4)cnc23)cccc1-c1cccc(-c2nc3cc(CN4CC[C@@H](C(=O)O)C4)cc(C#N)c3o2)c1C` as the molecule, how does the EC50 read?
Answer: The EC50 was “in the range around 55 nM”.

Question: With `Cc1c(Nc2nc(C(F)F)nc3cc(CN4CC[C@@](C)(O)C4)cnc23)cccc1-c1cccc(-c2nc3cc(CN4CCC(C(=O)O)CC4)cc(C#N)c3o2)c1C` as the molecule, how does the EC50 read?
Answer: Its EC50 is < 10 nM.

Question: Which EC50 does the source give for `Cc1nc(Nc2cccc(-c3cccc(-c4nc5cc(CN6CC[C@@H](C(=O)O)C6)cc(C#N)c5o4)c3C)c2C)c2ncc(CN3CC[C@@](C)(O)C3)cc2n1` here?
Answer: The EC50 was 10 to 100 nM.

Question: With `Cc1nc(Nc2cccc(-c3cccc(-c4nc5cc(CN6CC[C@@](C)(C(=O)O)C6)cc(C#N)c5o4)c3C)c2C)c2ncc(CN3CC[C@@](C)(O)C3)cc2n1` as the molecule, how does the EC50 read?
Answer: Its EC50 is 10 to 100 nM.

Question: For `Cc1c(Nc2nc(C(F)F)nc3cc(CN4CC[C@@H](O)C4)cnc23)cccc1-c1cccc(-c2nc3cc(CN4CC[C@](C)(C(=O)O)C4)cc(C#N)c3o2)c1C`, which EC50 is on record?
Answer: The EC50 was < 10 nM.

Question: Which EC50 does the source give for `Cc1nc(Nc2cccc(-c3cccc(-c4nc5cc(CN6CCC(C(=O)O)CC6)cc(C#N)c5o4)c3C)c2C)c2ncc(CN3CC[C@@](C)(O)C3)cc2n1` here?
Answer: The EC50 was 10 to 100 nM.

Question: With `Cc1nc(Nc2cccc(-c3cccc(-c4nc5cc(CN6CC[C@@](C)(C(=O)O)C6)cc(C#N)c5o4)c3C)c2C)c2ncc(CN3CC[C@](C)(O)C3)cc2n1` as the molecule, how does the EC50 read?
Answer: The EC50 was 10 to 100 nM.

Question: Which EC50 does the source give for `Cc1c(Nc2nc(C(F)F)nc3cc(CN4CC[C@@H](O)C4)cnc23)cccc1-c1cccc(-c2nc3cc(CN4CCC(C(=O)NCCC(=O)O)CC4)cc(C#N)c3o2)c1C` here?
Answer: Its EC50 is 10 to 100 nM.

Question: With `Cc1nc(Nc2cccc(-c3cccc(-c4nc5cc(CN6CC[C@@](C)(C(=O)O)C6)cc(C#N)c5o4)c3C)c2C)c2ncc(CN3CC[C@@H](O)C3)cc2n1` as the molecule, how does the EC50 read?
Answer: The EC50 was 10 to 100 nM.

Question: With `Cc1nc(Nc2cccc(-c3cccc(-c4nc5cc(CN6CC[C@@H](C(=O)O)C6)cc(C#N)c5o4)c3C)c2C)c2ncc(CN3CC[C@@H](O)C3)cc2n1` as the molecule, how does the EC50 read?
Answer: The EC50 was 10 to 100 nM and < 10 nM.

Question: For `Cc1nc(Nc2cccc(-c3cccc(-c4nc5cc(CN6CCC(C(=O)O)CC6)cc(C#N)c5o4)c3C)c2C)c2ncc(CN[C@@H](C)CO)cc2n1`, which EC50 is on record?
Answer: Its EC50 is “in the range around 55 nM”.

Question: For `Cc1c(Nc2nc(C(F)F)nc3cc(CN4CC[C@@H](O)C4)cnc23)cccc1-c1cccc(-c2nc3cc(CN4CCC(C(=O)O)CC4)cc(C#N)c3o2)c1C`, which EC50 is on record?
Answer: Its EC50 is “in the range around 55 nM”.
